Measurements reported in US7452865B2, “Antagonistic analogs of GH RH (2003)” (The Administrare's of the Tulane Educational Fund, priority 2004, dated 2008).
Marks after values point to notes of the source that are not given here. Square brackets hold non-standard residues; d marks the D form. Peptide text beside a SMILES is read from it. * marks the point of attachment. Phe(4-Cl) = N[C@@H](Cc1ccc(Cl)cc1)C(=O)O; hArg = N=C(N)NCCCC[C@H](N)C(=O)O; Nle = CCCC[C@H](N)C(=O)O; Abu = CC[C@H](N)C(=O)O; PhAc = O=C(Cc1ccccc1)*

Experiments:
[1] = tested on: PC-3 human prostate cancer xenografts; experiment: PC-3 xenografts in nude mice, Experiment 2: tumor growth; type: in vivo; conditions: for Tumor volume (mm^3) Initial: 5 μg/day groups, at start of treatment; for Tumor volume (mm^3) Final / Tumor volume doubling time / Tumor weight / Tumor volume Final (% inhibition) / Tumor weight (% inhibition): 5 μg/day s.c., 28 days; for Tumor volume Final (% inhibition) / Tumor weight (% inhibition): vs control
Procedure: (§1) Male nude mice were implanted s.c. with 3 mm^3 pieces of PC-3 human hormone-independent prostate cancer tissue on both flanks. When tumors reached a volume of approx. 50 mm^3, the mice were divided into 5 experimental groups with 7 to 8 animals in each group and received single daily injections for 28 days as follows: 1. Control (vehicle solution); 2. JV-1-38 (10 μg/day s.c.); 3 Peptide 31 (10 μg/day s.c.); 4. Peptide 67 (10 μg/day s.c.); 5. Peptide 62 (10 μg/day s.c.). Tumor volumes were measured twice a week. The experiment was ended on day 29 by sacrificing the mice under Isoflurane anesthesia. Resulting tumors were cleaned, weighed, and snap-frozen until further analyses. Trunk blood was collected from the abdominal aorta and serum was separated for RIA measurement of IGF-I. Statistical analyses of the measurement results were done by two-tailed t-test; data are presented as the means±S.E.
(§2) Experiment 2 was similar to Experiment 1, with the difference that Experiment 2 was started when PC-3 tumors had grown to approximately 30 mm^3 in volume. At this time, the animals were divided into 8 experimental groups with 8 animals in each group, and received single daily injections for 28 days as follows. 1. Control (vehicle solution); 2. JV-1-38 (10 μg/day s.c.); 3. Peptide 46 (5 μg/day: s.c.); 4. Peptide 77 (5 μg/day s.c); 5. Peptide 76 (5 μg/day s.c.); 6. Peptide 70 (5 μg/day s.c.); 7 Peptide 79 (5 μg/day s.c.); 8. Peptide 80 (5 μg/day s.c.). Further details of Experiment 2 are the same as for Experiment 1.

[2] = tested on: GH-RH receptor isoforms on membrane fractions of human PC-3 prostate tumors; type: binding; conditions: general statement
Summary of the method: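 Competitive displacement of [^125I]JV-1-42 from crude membranes of human PC-3 prostate tumours grown as nude-mouse xenografts, with unlabelled peptides at 10^−12 to 10^−6 M. Bound radioactivity in the centrifuged pellet gamma-counted; Ki from Munson–Rodbard analysis. Relative affinity = Ki of reference peptide (JV-1-36 or JV-1-38) / Ki of test antagonist.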

[3] = tested on: IGF-I; experiment: PC-3 xenografts, Experiment 2: serum IGF-I (RIA); type: in vivo, nude mice; conditions: 5 μg/day s.c., 28 days; for Serum IGF-I (% inhibition): vs control
Text: (§3) For the measurement of GH and IGF-I levels in the serum, as well as IGF-I and IGF-II concentrations in the cytosol fraction of tumors, blood samples and tumor samples were collected and processed as described (Braczkowski R, Schally A V, Plonowski A, Varga J L, Groot K, Krupa M, Armatis P, Cancer 95: 1735-1745, 2002), hereby incorporated by reference. Briefly, blood samples are centrifuged to separate the serum, tumors are homogenized and centrifuged to separate the cytosol fraction. Serum GH is then measured by the double-antibody RIA method. Before measurement by RIA, IGF-I and IGF-II are extracted from serum and cytosol fractions using an acid-ethanol cryoprecipitation method that eliminates most of the IGF binding proteins, which can interfere with the RIA. IGF-I concentration is measured by RIA using IGF-I as a standard and goat anti-IGF-I antibody (both from DSL Inc., Webster, Tex.). IGF-II concentration is measured by RIA using human recombinant IGF-II (Bachem) as a standard and anti-IGF-II monoclonal antibody (Amano International Enzyme, Troy, Va.).
as §1, §2

[4] = tested on: H-69 human SCLC xenografts; experiment: H-69 human SCLC xenografts in nude mice: tumor growth; type: in vivo
Procedure: Male nude mice were implanted s.c. with 3 mm^3 pieces of H-69 human SCLC tissue. When tumors reached a volume of approx. 80 mm^3 the mice were divided into 4 experimental groups of 7-8 animals each and received the following treatment for 4 weeks: group I (control), vehicle solution; group 2, Peptide 67 (10 μg/day s.c.); group 3, Peptide 31 (10 μg/day s.c.); group 4, Peptide 72 (10 μg/day s.c.). Tumor volumes were recorded twice a week. At the end of treatment, mice were anesthetized with isoflurane, killed by decapitation, and tumors were excised and weighed. Data are presented as means±S.E. Data were evaluated by one way ANOVA and the Student-Newman-Keuls test.

[5] = tested on: hGH-RH(1-29)NH2 induced GH release; experiment: Inhibition of GH release in superfused rat pituitary system; type: cell-based
Summary of the method: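 GH output was quantified by double-antibody RIA in superfusates of rat pituitary cells. Peptides were applied for 9 min at various concentrations before a 3-min 1 nM hGH-RH(1-29)NH2 pulse, with further pulses 30–120 min later; net integral responses given as percent of the original response.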

[6] = tested on: PC-3 human prostate cancer xenografts; experiment: PC-3 xenografts in nude mice, Experiment 1: tumor growth; type: in vivo
Procedure: as §1

[7] = tested on: IGF-I; experiment: PC-3 xenografts, Experiment 1: serum IGF-I (RIA); type: in vivo, nude mice; conditions: 10 μg/day s.c., 28 days
Text: as §3, §1

[8] = 10 μg/day s.c., 28 days, vs control

Compound | Tumor volume (mm^3) Initial [1] [mm^3] | Tumor volume (mm^3) Final [1] | Tumor volume doubling time [1] [days] | Tumor weight [1] [mg] | Tumor volume Final (% inhibition) [1] | Tumor weight (% inhibition) [1] | binding affinities to the tumoral receptors for GH-RH (in words) [2] | Serum IGF-I [3] [ng/mL] | Serum IGF-I (% inhibition) [3] [%] | further results
[HOOC(CH2)12CO-Tyr^1, D-Arg^2, Phe(pCl)^6, Cit^8, Amp^9, Tyr(Me)^10, His^11, Abu^15, Nle^27, D-Arg^28, Har^29]hGH-RH(1-29)NH2 [Peptide 77] | 27.2 ± 3.2 | 192 ± 44.1 mm^3 | 10.7 ± 0.8 | 138 ± 34.3 | (45%) | (51%) | extremely high binding affinities | 276 ± 16.8 | 0 | 
[CH3(CH2)6CO-Tyr^1, D-Arg^2, Phe(pCl)^6, Cit^8, Amp^9, Tyr(Me)^10, His^11, Abu^15, Nle^27, D-Arg^28, Har^29]hGH-RH(1-29)NH2 [Peptide 76] | 26.8 ± 3.4 | 232 ± 30.8 mm^3 | 9.4 ± 0.6 | 226 ± 48.3 | (34%) | (20%) | extremely high binding affinities | 260 ± 29.7 | 1 | 
[HOOC(CH2)12CO-Tyr^1, D-Arg^2, Phe(pCl)^6, Amp^9, Tyr(Me)^10, Abu^15, Nle^27, D-Arg^28, Har^29]hGH-RH(1-29)NH2 [Peptide 72] |  |  |  |  |  |  | extremely high binding affinities |  |  | antiproliferative effect on H-69 tumors (in words) ([4]; 10 μg/day, single daily injections): strongest antiproliferative effect; Tumor volume (mm^3) Final ([4]; H-69, 10 μg/day s.c., 4 weeks): 308 ± 23* mm^3; Tumor volume Final (% inhibition) ([4]; H-69, 10 μg/day s.c., 4 weeks, vs control): (90%); Tumor volume (mm^3) Initial ([4]; H-69, at start of treatment): 81 ± 9 mm^3
[CH3(CH2)6CO-Tyr^1, D-Arg^2, Phe(pCl)^6, Cit^8, His^9, Tyr(Et)^10, His^11, Abu^15, Nle^27, D-Arg^28, Har^29]hGH-RH(1-29)NH2 [Peptide 79] | 29.1 ± 4.3 | 139 ± 49.4*# mm^3 | 13.6 ± 1.8 | 153 ± 54.5 | (60%) | (46%) | extremely high binding affinities | 181 ± 19.8 | 31 | 
CCCC[C@H](NC(=O)[C@@H](NC(=O)[C@H](CC(=O)O)NC(=O)[C@H](CCC(N)=O)NC(=O)[C@H](CC(C)C)NC(=O)[C@H](CC(C)C)NC(=O)[C@H](CCCCN)NC(=O)[C@H](CCCNC(=N)N)NC(=O)[C@H](C)NC(=O)[C@H](CO)NC(=O)[C@H](CC(C)C)NC(=O)[C@H](CCC(N)=O)NC(=O)[C@H](CC)NC(=O)[C@H](CC(C)C)NC(=O)[C@@H](NC(=O)[C@H](CCCCN)NC(=O)[C@H](Cc1c[nH]cn1)NC(=O)[C@H](Cc1ccc(OC)cc1)NC(=O)[C@H](CCCCNC(=N)N)NC(=O)[C@H](CC(N)=O)NC(=O)[C@@H](NC(=O)[C@H](Cc1ccc(Cl)cc1)NC(=O)[C@@H](NC(=O)[C@H](C)NC(=O)[C@H](CC(=O)O)NC(=O)[C@@H](CCCNC(=N)N)NC(=O)[C@H](Cc1ccc(O)cc1)NC(=O)Cc1ccccc1)[C@@H](C)CC)[C@@H](C)O)C(C)C)[C@@H](C)CC)C(=O)N[C@H](CCCNC(=N)N)C(=O)N[C@@H](CCCCNC(=N)N)C(N)=O [Peptide 62, [PhAc-Tyr^1, D-Arg^2, Phe(pCl)^6, Har^9, Tyr(Me)^10, His^11, Abu^15, Nle^27, D-Arg^28, Har^29]hGH-RH(1-29)NH2] (PhAc-Y[dR]DAI[Phe(4-Cl)]TN[hArg]Y(Me)HKVL[Abu]QLSARKLLQDI[Nle][dR][hArg]-NH2) |  |  |  |  |  |  | extremely high binding affinities |  |  | GH response (% of control) 0 min ([5]; antagonist 30 nM, 1 nM hGH-RH(1-29)NH2 at 0 min): 20 % of control; GH response (% of control) 30 min ([5]; antagonist 30 nM, 1 nM hGH-RH(1-29)NH2 at 30 min): 16 % of control; GH response (% of control) 60 min ([5]; antagonist 30 nM, 1 nM hGH-RH(1-29)NH2 at 60 min): 14 % of control; GH response (% of control) 90 min ([5]; antagonist 30 nM, 1 nM hGH-RH(1-29)NH2 at 90 min): 21 % of control; GH response (% of control) 120 min ([5]; antagonist 30 nM, 1 nM hGH-RH(1-29)NH2 at 120 min): 21 % of control; endocrine antagonistic potency: inhibition of the GH release stimulated by hGH-RH(1-29)NH2 (in words) ([5]; general statement, in vitro and in vivo): high endocrine antagonistic potencies; Tumor volume (mm^3) Final ([6]; 10 μg/day s.c., 28 days): 215 ± 50.4 mm^3; Tumor volume doubling time ([6]; 10 μg/day s.c., 28 days): 18.4 ± 4.96 days; Tumor volume Final (% inhibition) [6, 8]: (57%); Tumor weight (% inhibition) [6, 8]: (47%); inhibitory effect on the growth of PC-3 tumors (in words) ([6]; 10 μg/day s.c., compared with JV-1-38): stronger inhibitory effect on the growth of PC-3 tumors than the reference peptide JV-1-38; Tumor volume (mm^3) Initial ([6]; at start of treatment): 56.1 ± 18.2 mm^3; Serum IGF-I [7]: 141 ± 8.86 ng/mL; Serum IGF-I (% inhibition) ([7]; vs control): (5%)
